For assay [1], the target named is T1, CDK2/Cyclin E1 (Homo sapiens, UniProt P24941). As to the kind of experiment: Caliper LabChip EZ Reader mobility shift assay. The assay is classed as biochemical. Particulars: 2.5 nM CDK2/Cyclin E1(14-475), 100 μM ATP, 30 min preincubation; read-out: Caliper Assay (CDK2/CCNE1): IC50. Here is the method: Inhibition of CDK2/Cyclin E1 activity in the presence of compounds of the present disclosure was evaluated using a Caliper LabChip® EZ Reader mobility shift assay. In the assay, activated CDK2/Cyclin E1 catalyzes the phosphorylation of a fluorescently tagged peptide 5-FAM-QSPKKG-CONH2 (PerkinElmer, FL Peptide 18) which induces a difference in capillary electrophoresis mobility. The peptide substrate and product were measured, and the conversion ratio was used to determine the inhibition (as % activity and IC50 values) of CDK2/Cyclin E1. Reactions contained 50 mM HEPES pH 7.5, 10 mM MgCl2, 1 mM EDTA, 2 mM DTT, 0.01% Brij35, 0.5 mg/mL BSA, 0.1% DMSO, 2.5 nM CDK2/Cyclin E1(14-475), 100 μM ATP, and 1.5 μM fluorescent peptide substrate.
Dose titrations of inhibitors in 100% DMSO were combined with 3.25 nM CDK2/Cyclin E1(14-475) and 130 μM of ATP in reaction buffer. The mixtures were incubated for 30 minutes before the addition of fluorescent peptide substrate to initiate the kinase reaction. The final conditions were 2.5 nM CDK2/Cyclin E1(14-475), 100 μM ATP, and 1.5 μM fluorescent peptide. The reactions were stopped after 100 minutes with the addition of EDTA (6 mM final EDTA concentration). The stopped reactions were analyzed on a Caliper LabChip® EZ Reader 11. The conversion ratios were normalized to yield % activity, plotted against compound concentration, and fit to a four-parameter equation to determine the IC50 for each compound.

In assay [2] the test system is Kuramochi cells RB-WT. As to the kind of experiment: IncuCyte Kuramochi cell proliferation assay, RB-WT. The following applies: 72 hours, cell count. The assay is classed as cell-based. The gist of the method:
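mApple-H2B-labelled Kuramochi cells were treated with a 10-point, half-log series (top 20 µM) and imaged at 0 and 72 h. Fluorescent nuclei were counted, and the 0–72 h fold change was normalized to DMSO wells. GI50 came from dose-response fits.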

Assay [3] has as its target T1, CDK2/Cyclin E1. The assay is described as follows: ADP-Glo Luminescent Kinase Assay (CDK2/E1-37C). Type of assay: biochemical. The following applies: 0.18 nM CDK2/Cyclin E1, 100 μM ATP, Histone H1, 37° C.; read-out: ADPGLO (CDK2/E1-37C): IC50. The gist of the method: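 Activated CDK2/Cyclin E1 (0.18 nM final) preincubated with compound 60 min at 37 °C, then reacted with 100 μM ATP and Histone H1 ([…]) for 90 min at 37 °C in HEPES pH 7.5 buffer. ADP-Glo luminescence normalized to % activity; IC50 from four-parameter fit.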
A general note: ADP-Glo first removes unused ATP, then detects ADP through luciferase.

Experimental findings from patent US20260034123A1 (Cedilla Therapeutics, Inc., priority 2022, published 2026) are described below.

Structures are written as SMILES.

Take `CC1(C)C[C@@H]1C(=O)N1CC2(CN(C(=O)c3cncs3)CC2COCc2cccc(-c3ccc(C(F)(F)F)cc3)c2C(=O)O)C1` (stereo partly drawn) [Compound I-4, 3-(((2-((S)-2,2-dimethylcyclopropane-1-carbonyl)-6-(thiazole-5-carbonyl)-2,6-diazaspiro[3.4]octan-8-yl)methoxy)methyl)-4′-(trifluoromethyl)-[1,1′-biphenyl]-2-carboxylic acid]: the IC50 in assay [1] was below 0.01 µM; in assay [2] it was above 10 µM; in assay [3], 0.5 to 5 µM.

For `CN(Cc1cccc(C2CCOCC2)n1)C[C@@H]1CN(C(=O)c2cncs2)CC12CN(C(=O)[C@H]1CC1(C)C)C2` [Compound I-26, (2-((S)-2,2-dimethylcyclopropanecarbonyl)-8-((methyl((6-(tetrahydro-2H-pyran-4-yl)pyridin-2-yl)methyl)amino)methyl)-2,6-diazaspiro[3.4]octan-6-yl)(thiazol-5-yl) methanone], the IC50 in assay [1] and in assay [2] was above 10 µM each time.

On to `CC1(C)C[C@@H]1C(=O)N1CC2(CN(C(=O)c3cncs3)C[C@H]2COCc2cc3ccccc3c(C3CCOCC3)n2)C1` [Compound I-28, ((S)-2-((S)-2,2-dimethylcyclopropane-1-carbonyl)-8-(((1-(tetrahydro-2H-pyran-4-yl)isoquinolin-3-yl)methoxy)methyl)-2,6-diazaspiro[3.4]octan-6-yl)(thiazol-5-yl)methanone], for which the IC50 is 0.1 to 1 µM in assay [1] and above 10 µM in assay [2].

For the molecule `CC1(C)C[C@@H]1C(=O)N1CC2(CN(C(=O)c3cncs3)C[C@H]2COCc2ccn[nH]2)C1` [Compound I-29, ((S)-8-(((1H-pyrazol-5-yl)methoxy)methyl)-2-((S)-2,2-dimethylcyclopropanecarbonyl)-2,6-diazaspiro[3.4]octan-6-yl)(thiazol-5-yl)methanone], the IC50 in assay [1] and in assay [2] was above 10 µM each time.

Consider `CC1(C)C[C@@H]1C(=O)N1CC2(CN(C(=O)c3cncs3)C[C@H]2COc2cccc3ccc(C4CCOCC4)nc23)C1` [Compound I-30, ((S)-2-((S)-2,2-dimethylcyclopropanecarbonyl)-8-(((2-(tetrahydro-2H-pyran-4-yl)quinolin-8-yl)oxy)methyl)-2,6-diazaspiro[3.4]octan-6-yl)(thiazol-5-yl)methanone], for which the IC50 is 1 to 10 µM in assay [1] and above 10 µM in assay [2].

Take `CC1(C)C[C@@H]1C(=O)N1CC2(CN(C(=O)c3cncs3)C[C@H]2COCC2CCCCO2)C1` (stereo partly drawn) [Compound I-32, ((S)-2-((S)-2,2-dimethylcyclopropane-1-carbonyl)-8-(((tetrahydro-2H-pyran-2-yl)methoxy)methyl)-2,6-diazaspiro [3.4]octan-6-yl) (thiazol-5-yl) methanone]: the IC50 in assay [1] and in assay [2] was above 10 µM each time.

With `CC1(C)C[C@@H]1C(=O)N1CC2(CN(C(=O)c3cncs3)C[C@H]2COCc2cccc(-c3ccc(C(F)(F)F)cc3F)n2)C1` [Compound I-33, ((S)-2-((S)-2,2-dimethylcyclopropane-1-carbonyl)-8-(((6-(2-fluoro-4-(trifluoromethyl)phenyl)pyridin-2-yl)methoxy)methyl)-2,6-diazaspiro[3.4]octan-6-yl)(thiazol-5-yl) methanone], the IC50 lay in the range of 0.01 to 0.1 µM in assay [1] and 5 to 10 µM in assay [2].

`CC(OCc1cccc(C2CCOCC2)n1)[C@@H]1CN(C(=O)c2cncs2)CC12CN(C(=O)[C@H]1CC1(C)C)C2` (stereo partly drawn) [Compound I-35, ((S)-2-((S)-2,2-dimethylcyclopropane-1-carbonyl)-8-(1-((6-(tetrahydro-2H-pyran-4-yl)pyridin-2-yl)methoxy)ethyl)-2,6-diazaspiro [3.4]octan-6-yl) (thiazol-5-yl) methanone]: the IC50 in assay [1] and in assay [2] was above 10 µM in each case.

Take `CC1(C)C[C@@H]1C(=O)N1CC2(CN(C(=O)c3cncs3)C[C@H]2COCc2ccnn2C2CCCC2)C1` [Compound I-37, ((S)-8-(((1-cyclopentyl-1H-pyrazol-5-yl)methoxy)methyl)-2-((S)-2,2-dimethylcyclopropanecarbonyl)-2,6-diazaspiro[3.4]octan-6-yl)(thiazol-5-yl)methanone]: the IC50 in assay [1] and in assay [2] was above 10 µM each time.

As for `CC1(C)C[C@@H]1C(=O)N1CC2(CN(C(=O)c3cncs3)C[C@H]2COCc2ccc(Cl)c(Cl)c2)C1` [Compound I-40, ((S)-8-(((3,4-dichlorobenzyl)oxy)methyl)-2-((S)-2,2-dimethylcyclopropanecarbonyl)-2,6-diazaspiro[3.4]octan-6-yl)(thiazol-5-yl)methanone], the figures for the IC50 in assay [1] and in assay [2] were 1 to 10 µM and above 10 µM, respectively.

`CC1(C)C[C@@H]1C(=O)N1CC2(CN(C(=O)c3cncs3)C[C@H]2COCc2ccc(C(F)(F)F)cc2)C1` [Compound I-41, ((S)-2-((S)-2,2-dimethylcyclopropane-1-carbonyl)-8-(((4-(trifluoromethyl)benzyl)oxy)methyl)-2,6-diazaspiro[3.4]octan-6-yl)(thiazol-5-yl)methanone]: the IC50 in assay [1] is 1 to 10 µM; in assay [2], above 10 µM.

`CC1(C)C[C@@H]1C(=O)N1CC2(CN(C(=O)c3cncs3)C[C@H]2COCc2cncc(C3CCOCC3)c2)C1` [Compound I-42, ((S)-2-((S)-2,2-dimethylcyclopropane-1-carbonyl)-8-(((5-(tetrahydro-2H-pyran-4-yl)pyridin-3-yl)methoxy)methyl)-2,6-diazaspiro[3.4]octan-6-yl)(thiazol-5-yl)methanone]: the IC50 was 1 to 10 µM in assay [1] and above 10 µM in assay [2].

For `CC1(C)C[C@@H]1C(=O)N1CC2(CN(C(=O)c3cncs3)C[C@H]2COCc2cc(C3CCOCC3)ccn2)C1` [Compound I-43, ((S)-2-((S)-2,2-dimethylcyclopropane-1-carbonyl)-8-(((4-(tetrahydro-2H-pyran-4-yl)pyridin-2-yl)methoxy)methyl)-2,6-diazaspiro[3.4]octan-6-yl)(thiazol-5-yl)methanone], the IC50 in assay [1] is 1 to 10 µM; in assay [2], above 10 µM.

Turning to `CC1(C)C[C@@H]1C(=O)N1CC2(CN(C(=O)c3cncs3)C[C@H]2COCc2cccc(C(F)(F)F)c2)C1` [Compound I-44, ((S)-2-((S)-2,2-dimethylcyclopropanecarbonyl)-8-(((3-(trifluoromethyl)benzyl)oxy)methyl)-2,6-diazaspiro[3.4]octan-6-yl)(thiazol-5-yl)methanone], the IC50 was 1 to 10 µM in assay [1] and above 10 µM in assay [2].

`CC1(C)C[C@@H]1C(=O)N1CC2(CN(C(=O)c3cncs3)C[C@H]2COCc2ccnc(C3CCOCC3)c2)C1` [Compound I-45, ((S)-2-((S)-2,2-dimethylcyclopropane-1-carbonyl)-8-(((2-(tetrahydro-2H-pyran-4-yl)pyridin-4-yl)methoxy)methyl)-2,6-diazaspiro[3.4]octan-6-yl)(thiazol-5-yl)methanone]: the IC50 in assay [1] and in assay [2] was above 10 µM in each case.

In the case of `CC1(C)C[C@@H]1C(=O)N1CC2(C1)CN(c1cccc3ncsc13)CC2COCc1cccc(C2CCOCC2)n1` (stereo partly drawn) [Compound I-46], the IC50 in assay [1] and in assay [2] was above 10 µM each time.

For the molecule `CC1(C)C[C@@H]1C(=O)N1CC2(C1)CN(c1ncnc3ncsc13)CC2COCc1cccc(C2CCOCC2)n1` (stereo partly drawn) [Compound I-47, ((S)-2,2-dimethylcyclopropyl)(8-(((6-(tetrahydro-2H-pyran-4-yl)pyridin-2-yl)methoxy)methyl)-6-(thiazolo[4,5-d]pyrimidin-7-yl)-2,6-diazaspiro[3.4]octan-2-yl)methanone], the IC50 in assay [1] and in assay [2] was above 10 µM throughout.

On to `CC1(C)C[C@@H]1C(=O)N1CC2(CN(C(=O)c3cncs3)CC2COCc2cccc(C3=CCOCC3)n2)C1` (stereo partly drawn) [Compound I-48], for which the values for the IC50 in assay [1] and in assay [2] were 1 to 10 µM and above 10 µM, respectively.

Consider `CC1(C)C[C@@H]1C(=O)N1CC2(CN(C(=O)c3cncs3)C[C@@H]2COCc2cccc(C3CCOCC3)n2)C1` [Compound I-64, ((R)-2-((S)-2,2-dimethylcyclopropane-1-carbonyl)-8-(((6-(tetrahydro-2H-pyran-4-yl)pyridin-2-yl)methoxy)methyl)-2,6-diazaspiro[3.4]octan-6-yl)(thiazol-5-yl) methanone], for which the IC50 in assay [1] is 1 to 10 µM; in assay [2], above 10 µM.
